In patent US20230085307A1, “PYRIDAZINONE COMPOUND AND HERBICIDE” (NISSAN CHEMICAL CORPORATION, priority 2019, published 2023):

Legend:
blackgrass [1] = experiment: Test Example 4: herbicidal effect by soil treatment (Table 19, symbol J); format: in vivo, blackgrass (Alopecurus myosuroides); settings: amount of applied herbicide 320 g/ha
Summary of the method: (§1)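 Soil-surface application: an emulsion agent diluted with water to the predetermined dose is sprayed uniformly over seeds lying under roughly 1.5 cm of sterilized diluvial soil. Boxes stay in a greenhouse at 25° C. to 30° C. Three weeks later, each species is graded on previously defined criteria.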

southern crabgrass = experiment: Test Example 4: herbicidal effect by soil treatment (Table 19, symbol F); format: in vivo, southern crabgrass (Digitaria ciliaris); settings: amount of applied herbicide 320 g/ha
Summary of the method: as §1

velvetleaf = experiment: Test Example 5: herbicidal effect by foliage application, plastic box (Table 20, symbol M); format: in vivo, velvetleaf (Abutilon theophrasti); settings: foliage application after 14-day growth, evaluated three weeks after application
Summary of the method: (§2)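 Sow seeds spot-wise in sterilized diluvial soil; cover with ~1.5 cm soil. Grow 14 days in greenhouse, 25° C. to 30° C. Spray foliage with emulsion diluted to predetermined amount. Rate effect after 3 weeks.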

rice flat sedge = experiment: Test Example 3: herbicidal effect by foliage application, Wagner pot (Table 18, symbol E); format: in vivo, rice flat sedge (Cyperus iria); settings: 320 g/ha
Summary of the method: (§3)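 Plants were sown in alluvial soil held under 0.1–0.5 cm standing water and grown 14 days in a greenhouse at 25–30 °C. An emulsifiable formulation, water-diluted to the set dose, was then sprayed onto the foliage, and effects were scored three weeks later using previously defined criteria.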

Japanese bulrush = experiment: Test Example 1: herbicidal activity, application before weed generation under submerged conditions (Table 16, symbol B); format: in vivo, Japanese bulrush (Schoenoplectus juncoides); settings: amount of applied herbicide 320 g/ha
Summary of the method: (§4)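 Alluvial soil was flooded to 4 cm depth, weed seeds were sown mixed and 2.5-leaf rice seedlings were transplanted. On sowing day, the compound's emulsion, diluted in water to a set dose, was applied to the water surface. Plants grew at 25–30 °C and were scored 0–5 after three weeks.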

redroot pigweed [2] = experiment: Test Example 5: herbicidal effect by foliage application, plastic box (Table 20, symbol N); format: in vivo, redroot pigweed (Amaranthus retroflexus); settings: foliage application after 14-day growth, evaluated three weeks after application
Summary of the method: as §2

Italian ryegrass = experiment: Test Example 5: herbicidal effect by foliage application, plastic box (Table 20, symbol K); format: in vivo, Italian ryegrass (Lolium multiflorum); settings: foliage application after 14-day growth, evaluated three weeks after application
Summary of the method: as §2

blackgrass [3] = experiment: Test Example 5: herbicidal effect by foliage application, plastic box (Table 20, symbol J); format: in vivo, blackgrass (Alopecurus myosuroides); settings: foliage application after 14-day growth, evaluated three weeks after application
Summary of the method: as §2

Chinese sprangletop = experiment: Test Example 3: herbicidal effect by foliage application, Wagner pot (Table 18, symbol D); format: in vivo, chinese sprangletop (Leptochloa chinensis); settings: 320 g/ha
Summary of the method: as §3

lambsquarters = experiment: Test Example 5: herbicidal effect by foliage application, plastic box (Table 20, symbol O); format: in vivo, lambsquarters (Chenopodium album); settings: foliage application after 14-day growth, evaluated three weeks after application
Summary of the method: as §2

barnyard grass [4] = experiment: Test Example 5: herbicidal effect by foliage application, plastic box (Table 20, symbol H); format: in vivo, barnyard grass (Echinochloa crus-galli); settings: foliage application after 14-day growth, evaluated three weeks after application
Summary of the method: as §2

windgrass = experiment: Test Example 5: herbicidal effect by foliage application, plastic box (Table 20, symbol L); format: in vivo, windgrass (Apera spica-venti); settings: foliage application after 14-day growth, evaluated three weeks after application
Summary of the method: as §2

redroot pigweed [5] = experiment: Test Example 4: herbicidal effect by soil treatment (Table 19, symbol N); format: in vivo, redroot pigweed (Amaranthus retroflexus); settings: amount of applied herbicide 320 g/ha
Summary of the method: as §1

barnyard grass [6] = experiment: Test Example 3: herbicidal effect by foliage application, Wagner pot (Table 18, symbol H); format: in vivo, barnyard grass (Echinochloa crus-galli); settings: 320 g/ha
Summary of the method: as §3

persian speedwell = experiment: Test Example 5: herbicidal effect by foliage application, plastic box (Table 20, symbol R); format: in vivo, Persian speedwell (Veronica persica); settings: foliage application after 14-day growth, evaluated three weeks after application
Summary of the method: as §2

green foxtail [7] = experiment: Test Example 4: herbicidal effect by soil treatment (Table 19, symbol G); format: in vivo, green foxtail (Setaria viridis); settings: amount of applied herbicide 320 g/ha
Summary of the method: as §1

green foxtail [8] = experiment: Test Example 5: herbicidal effect by foliage application, plastic box (Table 20, symbol G); format: in vivo, green foxtail (Setaria viridis); settings: foliage application after 14-day growth, evaluated three weeks after application
Summary of the method: as §2

late watergrass = experiment: Test Example 1: herbicidal activity, application before weed generation under submerged conditions (Table 16, symbol A); format: in vivo, late watergrass (Echinochloa oryzicola); settings: amount of applied herbicide 320 g/ha
Summary of the method: as §4

[9] = amount of applied herbicide 320 g/ha

| SMILES | Herbicidal effect by soil treatment, J: blackgrass (blackgrass [1]) | Herbicidal effect by soil treatment, F: southern crabgrass (southern crabgrass) | herbicidal effect on rice flat sedge (E) (rice flat sedge) | Herbicidal effect, B: Japanese bulrush (Japanese bulrush) | herbicidal effect on Chinese sprangletop (D) (Chinese sprangletop) | Herbicidal effect by soil treatment, N: redroot pigweed (redroot pigweed [5]) | herbicidal effect on barnyard grass (H) (barnyard grass [6]) | Herbicidal effect by soil treatment, G: green foxtail (green foxtail [7]) | Herbicidal effect, A: late watergrass (late watergrass) | other results |
| --- | --- | --- | --- | --- | --- | --- | --- | --- | --- | --- |
| CCCC(=O)Oc1c(C)nn(C)c(=O)c1-c1c(-c2ccc(SC)cc2)sc2c(F)cccc12 [4-051] | 0 (Herbicidal rate of 5% or less (almost no effect)) | 0 (Herbicidal rate of 5% or less (almost no effect)) | 3 (Herbicidal rate of 40% or more and less than 70%) | 3 (Herbicidal rate of 40% or more and less than 70%) | 3 (Herbicidal rate of 40% or more and less than 70%) | 5 (Herbicidal rate of 90% or more (almost completely withered)) | 5 (Herbicidal rate of 90% or more (almost completely withered)) | 1 (Herbicidal rate of 5% or more and less than 20%) | 4 (Herbicidal rate of 70% or more and less than 90%) | herbicidal effect on M: velvetleaf (evaluation grade 0-5) (velvetleaf; 320 g/ha): 5 (Herbicidal rate of 90% or more (almost completely withered)); herbicidal effect on N: redroot pigweed (evaluation grade 0-5) (redroot pigweed [2]; 320 g/ha): 5 (Herbicidal rate of 90% or more (almost completely withered)); herbicidal effect on K: Italian ryegrass (evaluation grade 0-5) (Italian ryegrass; 320 g/ha): 4 (Herbicidal rate of 70% or more and less than 90%); herbicidal effect on J: blackgrass (evaluation grade 0-5) (blackgrass [3]; 320 g/ha): 4 (Herbicidal rate of 70% or more and less than 90%); herbicidal effect on O: lambsquarters (evaluation grade 0-5) (lambsquarters; 320 g/ha): 5 (Herbicidal rate of 90% or more (almost completely withered)); herbicidal effect on H: barnyard grass (evaluation grade 0-5) (barnyard grass [4]; 320 g/ha): 4 (Herbicidal rate of 70% or more and less than 90%); herbicidal effect on L: windgrass (evaluation grade 0-5) (windgrass; 320 g/ha): 5 (Herbicidal rate of 90% or more (almost completely withered)); herbicidal effect on R: persian speedwell (evaluation grade 0-5) (persian speedwell; 320 g/ha): 5 (Herbicidal rate of 90% or more (almost completely withered)); herbicidal effect on G: green foxtail (evaluation grade 0-5) (green foxtail [8]; 320 g/ha): 3 (Herbicidal rate of 40% or more and less than 70%) |
| Cc1nn(C)c(=O)c(-c2c(-c3ccccc3OC(F)(F)F)sc3c(Cl)cccc23)c1O [4-076] | 0 (Herbicidal rate of 5% or less (almost no effect)) | 0 (Herbicidal rate of 5% or less (almost no effect)) | 3 (Herbicidal rate of 40% or more and less than 70%) | 3 (Herbicidal rate of 40% or more and less than 70%) | 3 (Herbicidal rate of 40% or more and less than 70%) | 4 (Herbicidal rate of 70% or more and less than 90%) | 4 (Herbicidal rate of 70% or more and less than 90%) | 0 (Herbicidal rate of 5% or less (almost no effect)) | 0 (Herbicidal rate of 5% or less (almost no effect)) | Herbicidal effect by foliage application, M: velvetleaf (velvetleaf; [9]): 4 (Herbicidal rate of 70% or more and less than 90%); Herbicidal effect by foliage application, N: redroot pigweed (redroot pigweed [2]; [9]): 5 (Herbicidal rate of 90% or more (almost completely withered)); Herbicidal effect by foliage application, K: Italian ryegrass (Italian ryegrass; [9]): 0 (Herbicidal rate of 5% or less (almost no effect)); Herbicidal effect by foliage application, J: blackgrass (blackgrass [3]; [9]): 0 (Herbicidal rate of 5% or less (almost no effect)); Herbicidal effect by foliage application, O: lambsquarters (lambsquarters; [9]): 4 (Herbicidal rate of 70% or more and less than 90%); Herbicidal effect by foliage application, H: barnyard grass (barnyard grass [4]; [9]): 3 (Herbicidal rate of 40% or more and less than 70%); Herbicidal effect by foliage application, L: windgrass (windgrass; [9]): 0 (Herbicidal rate of 5% or less (almost no effect)); Herbicidal effect by foliage application, R: persian speedwell (persian speedwell; [9]): 5 (Herbicidal rate of 90% or more (almost completely withered)); Herbicidal effect by foliage application, G: green foxtail (green foxtail [8]; [9]): 4 (Herbicidal rate of 70% or more and less than 90%) |
